Laboratory results as given in publication PMC8252068, “Biochemical Investigation of the Interaction of pICln, RioK1 and COPR5 with the PRMT5–MEP50 Complex” (Chembiochem, 2021).
Where a SMILES comes first, the peptide text is derived from it. Side-chain parts run from the residue outwards. The star is where a group is joined. FITC = O=C1OC2(c3ccc(O)cc3Oc3cc(O)ccc32)c2ccc(NC(=S)*)cc21; AEEA = NCCOCCOCC(=O)O

Experiments:
[1] = target: T1, native PRMT5–MEP50 complex (Homo sapiens, UniProt O14744+Q9BQA1); assay: Competitive fluorescence polarisation binding assay with compound 11 as tracer; settings: competitive FP; tracer compound 11 at 1 nM, PRMT5-MEP50 600 nM, unlabelled peptide titrated two-fold; pH 8.0; 30 min, 20-21 °C; n=3
T1 construct: Full‐length PRMT5–MEP50; 6His-MBP with 3C site (N, cleaved yes); made in house; host or cells: HighFive insect cells (flashBAC baculovirus system)
T1 sequence (O14744 whole entry): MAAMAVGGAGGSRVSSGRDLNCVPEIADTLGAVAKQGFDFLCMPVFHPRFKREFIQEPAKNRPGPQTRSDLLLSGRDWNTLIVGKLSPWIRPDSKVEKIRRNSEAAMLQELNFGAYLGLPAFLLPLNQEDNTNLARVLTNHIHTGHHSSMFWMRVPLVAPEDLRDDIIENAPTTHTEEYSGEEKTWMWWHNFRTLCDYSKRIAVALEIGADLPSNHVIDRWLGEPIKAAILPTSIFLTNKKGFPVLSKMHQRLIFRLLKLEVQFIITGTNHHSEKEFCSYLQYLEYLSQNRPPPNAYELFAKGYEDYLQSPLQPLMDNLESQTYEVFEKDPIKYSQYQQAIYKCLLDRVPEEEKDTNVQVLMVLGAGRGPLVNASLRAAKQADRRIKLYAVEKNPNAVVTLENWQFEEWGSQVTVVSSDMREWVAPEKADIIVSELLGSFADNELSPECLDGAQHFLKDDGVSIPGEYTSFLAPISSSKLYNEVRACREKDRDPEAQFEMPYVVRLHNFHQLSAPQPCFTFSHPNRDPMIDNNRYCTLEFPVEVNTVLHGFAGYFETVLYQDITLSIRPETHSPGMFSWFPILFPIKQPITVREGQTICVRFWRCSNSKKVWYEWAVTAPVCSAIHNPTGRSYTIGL
T1 sequence (Q9BQA1 whole entry partner): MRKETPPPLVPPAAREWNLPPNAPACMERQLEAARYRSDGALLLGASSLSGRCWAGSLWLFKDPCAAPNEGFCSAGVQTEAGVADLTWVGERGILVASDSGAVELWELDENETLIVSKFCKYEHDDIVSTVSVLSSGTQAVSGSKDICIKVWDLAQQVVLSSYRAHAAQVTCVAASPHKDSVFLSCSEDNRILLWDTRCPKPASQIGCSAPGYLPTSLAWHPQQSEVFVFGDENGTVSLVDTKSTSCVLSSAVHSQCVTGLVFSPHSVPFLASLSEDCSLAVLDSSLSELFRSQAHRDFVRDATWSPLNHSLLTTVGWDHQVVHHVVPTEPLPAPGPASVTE
Description: (§1) All proteins were expressed at the Protein Chemistry Facility (PCF) based in the MPI Dortmund.
(§2) For expression of the proteins, all constructs were subcloned into pOPIN vectors. […]
(§3) Expression of full-length human RioK1 tagged with 6NHis-3C and co-expression of full-length human PRMT5 (N-terminal 6His-MBP with 3C) with MEP50 (N-terminal 6His-TRX with 3C), and of TIM barrel (1-292 aa) with MEP50 (both N-terminally tagged with His-TRX with 3C cleavage site) was done using the Flash Bac Expression System (Oxford Expression Technologies, UK) with HighFive insect cells in Gibco Sf-900 III SFM medium. The cells were harvested by centrifugation and lysed.
(§4) All proteins were purified at the PCF (MPI Dortmund).
(§5) Protein purification was performed on HisTrap FF crude 5 ml Ni-based column, followed by the on-column treatment with 6His-tagged HRV-3C PreScission protease, or in case of the SUMO-tagged TIM barrel, with 6His-tagged SUMO protease. The cleaved proteins were then further purified using gel filtration chromatography with the HiLoad 26/60 Superdex 75 or 200 prep grade column. PRMT5 -MEP50, TIM-MEP50 and TIM barrel were stored in a buffer containing 50 mM HEPES, 250 mM NaCl, 1 mM TCEP with the pH adjusted to 8.0, whereas, pICln was stored in a buffer of 20 mM phosphate, 100 mM NaCl, 5 mM TCEP and pH of 7.5, whereas RioK1 was stored in a buffer of 50 mM Tris, 200 mM NaCl, 10% glycerol, 1 […]
(§6) Protein Labelling with Alexa 488
(§7) To a protein solution (ca. 1 mg/ml) in 0.2 M bicarbonate buffer with 1 mM TCEP at pH 8.3, was added 10 mM Alexa 488 NHS-ester in DMSO (8 equiv), and the mixture was kept on ice, in darkness, overnight. The protein was washed eight times with buffer (50 mM HEPES, 250 mM NaCl, 1 mM TCEP, 8.0 pH) using an Amicon® Ultra-0.5 mL spin filter. Protein concentration was then determined using the NanoDrop […]
Competitive Binding Assay
The competitive binding assay was performed in a buffer of 50 mM HEPES, 250 mM NaCl, 1 mM TCEP, 0.01% (v/v) Tween 20, 8.0 pH, in black, 384 well-plates, with a total volume of 10 μl per well. The FITC labelled peptides were added at the final concentration of 1 nM, were mixed with PRMT5-MEP50 (at the final concentration of 600 nM), and the appropriate non-labelled peptide was titrated as two-fold dilution series. The plates were incubated at 20-21 °C for 30 min and analysed on a plate reader using 485 nm excitation and 535 nm emission wavelength. The experiment was performed in triplicates.

[2] = target: T1, native PRMT5–MEP50 complex; assay: Fluorescence polarisation direct binding assay, full-length PRMT5–MEP50; settings: FITC peptide 1 nM, 30 min, 20-21 °C, n=3, n.b. = no binding; for Kd: read-out: K D (Table 2, peptides 1–16)
Description: as §1, §2, §3, §4, §5, §6, §7
(§8) Fluorescence Polarisation (FP)
(§9) The assay was performed in a buffer of 50 mM HEPES, 250 mM NaCl, 1 mM TCEP, 0.01% (v/v) Tween 20, pH 8.0, in black, 384 well-plates, with a total volume of 10 μl per well. The analysed, FITC labelled peptides, or Alexa488-labelled pICln or RioK1, were tested at a final concentration of 1 nM, and the appropriate unlabelled protein was titrated as two-fold dilution series. The plates were incubated at 20-21 °C for 30 min in case of FITC -labelled peptides or 1-2h in case of the Alexa488-labelled protein, and analysed on a plate reader using 485 nm excitation and 535 nm emission wavelength. The assay was performed in […]

[3] = target: T2, TIM–MEP50 complex (PRMT5 residues 1–292 co-expressed with MEP50) (Homo sapiens, UniProt O14744+Q9BQA1); assay: Fluorescence polarisation direct binding assay, TIM–MEP50; settings: FP direct binding, FITC peptide 1 nM, protein titrated, HEPES buffer pH 8.0, 30 min, 20-21 °C, n=3, n.b. = no binding; for Kd: read-out: K D value, TIM–MEP50
T2 construct: truncated PRMT5 protein (residues 1–292), corresponding to the TIM barrel domain, was either expressed alone or co‐expressed as a complex with MEP50; His-TRX with 3C cleavage site (N, cleaved yes); made in house; host or cells: HighFive insect cells (flashBAC baculovirus system)
T2 sequence (O14744 1-292): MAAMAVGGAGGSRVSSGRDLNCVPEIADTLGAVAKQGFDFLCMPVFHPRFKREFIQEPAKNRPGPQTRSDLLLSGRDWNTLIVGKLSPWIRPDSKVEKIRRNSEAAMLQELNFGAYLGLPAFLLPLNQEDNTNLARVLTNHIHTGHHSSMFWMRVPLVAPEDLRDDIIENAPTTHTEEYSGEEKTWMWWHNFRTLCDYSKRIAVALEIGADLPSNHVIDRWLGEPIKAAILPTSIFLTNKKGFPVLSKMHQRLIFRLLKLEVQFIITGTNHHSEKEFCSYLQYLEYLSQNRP
T2 sequence (Q9BQA1 whole entry partner, the tested form may be a part): as the sequence (Q9BQA1 whole entry partner) above
Protocol: as §1
(§10) For expression of the proteins, all constructs were subcloned into pOPIN vectors.
(§11) Full-length human pICln, N-terminally tagged with 6His-TRX followed by the 3C cleavage site, and TIM barrel domain (1-292 aa) of human PRMT5, N-terminally tagged with 6His-SUMO, were expressed in BL21 CodonPlus (DE3) RIPL strain of Escherichia coli. Bacteria with the respective plasmids were cultured in Terrific Broth medium. Expression of TIM barrel was auto-induced, with incubation of the starter-culture (starting OD of ~0.05) at 35 °C for 2.5h, followed by an overnight incubation (20 -24h) at 25 °C. Expression of pICln was induced at OD ~0.6-0.8 using 0.3 mM IPTG and E. coli was incubated at 20 °C for 20h. Bacteria were harvested by centrifugation and lysed.
as §3, §4, §5, §6, §7, §8, §9

[4] = target: T3, TIM barrel domain of PRMT5 (residues 1–292) (Homo sapiens, UniProt O14744); assay: Fluorescence polarisation direct binding assay, isolated TIM barrel
T3 construct: barrel domain (1-292 aa) of human PRMT5, N-terminally tagged with 6His-SUMO; 6His-SUMO (N, cleaved yes); made in house; host or cells: Escherichia coli BL21 CodonPlus (DE3) RIPL
T3 sequence (O14744 1-292): as the sequence (O14744 1-292) above
Protocol: as §1, §10
as §11, with “lysed. […]” for “lysed.”
To a protein solution (ca. 1 mg/ml) in 0.2 M bicarbonate buffer with 1 mM TCEP at pH 8.3, was added 10 mM Alexa 488 NHS-ester in DMSO (8 equiv), and the mixture was kept on ice, in darkness, overnight. […] Protein concentration was then determined using the NanoDrop […]
as §8
The assay was performed in a buffer of 50 mM HEPES, 250 mM NaCl, 1 mM TCEP, 0.01% (v/v) Tween 20, pH 8.0, in black, 384 well-plates, with a total volume of 10 μl per well. The analysed, FITC labelled peptides, or Alexa488-labelled pICln or RioK1, were tested at a final concentration of 1 nM, and the appropriate unlabelled protein was titrated as two-fold dilution series. The plates were incubated at 20-21 °C for 30 min in case of FITC -labelled peptides or 1-2h in case of the Alexa488-labelled protein, and analysed on a plate reader using 485 nm excitation and 535 nm emission wavelength. […]

[5] = FP using the native PRMT5–MEP50 complex, pH 8.0

Row | Compound | IC50 [1] [nM] | other results
1 | Ac-SRVVPGQFADAD-NH2 [compound 29] | 6400 ± 300 | 
2 | Ac-SRVVPGAFDDAD-NH2 [compound 31] | > 300000 | 
3 | Ac-ARVVPGQFDDAD-NH2 [compound 37] | 900 ± 200 | 
4 | Ac-SRVVPGQFDDAA-NH2 [compound 27] | 6200 ± 2200 | 
5 | CC(C)[C@H](NC(=O)[C@@H](NC(=O)[C@@H]1CCCN1C(=O)[C@@H](NC(=O)COCCOCCNC(=S)Nc1ccc2c(c1)C(=O)OC21c2ccc(O)cc2Oc2cc(O)ccc21)[C@@H](C)O)[C@@H](C)O)C(=O)N[C@@H](C)C(=O)NCC(=O)N[C@@H](CCC(N)=O)C(=O)N[C@@H](Cc1ccccc1)C(=O)N[C@@H](CCC(=O)O)C(=O)N[C@@H](CC(=O)O)C(=O)N[C@@H](C)C(=O)N[C@@H](CC(=O)O)C(N)=O [compound 2] ({FITC-AEEA}-TPTVAGQFEDAD-NH2) |  | Kd [2, 5]: 1140 ± 38 nM; Kd [3]: 2100 ± 150 nM; Kd [4]: 5800 ± 110 nM
6 | Fitc‐O2Oc‐PTVAGQF‐NH2 [compound 4, DAB1 derived, fluorescently labelled linear peptide] |  | K D value, Full‐length PRMT5–MEP50 ([2]; FP direct binding, protein titrated two-fold, 50 mM HEPES, 250 mM NaCl, 1 mM TCEP, 0.01% Tween 20, pH 8.0): did not have affinity and n.b.; K D (Table 2, peptides 1–16) [2, 5]: n.b.; K D value, TIM–MEP50 [3]: did not have affinity and n.b.
7 | Ac-SAVVPGQFDDAD-NH2 [compound 36] | 2800 ± 500 | 
8 | Ac-SRVVAGQFDDAD-NH2 [compound 33] | 9900 ± 2200 | 
9 | Ac-SRVVPGQFDDADSSD-NH2 [compound 23] | 1500 ± 400 | 
10 | CC(C)[C@H](NC(=O)[C@H](CCCNC(=N)N)NC(=O)[C@H](CO)NC(=O)COCCOCCNC(=S)Nc1ccc2c(c1)C(=O)OC21c2ccc(O)cc2Oc2cc(O)ccc21)C(=O)N[C@H](C(=O)N1CCC[C@H]1C(=O)NCC(=O)N[C@@H](CCC(N)=O)C(=O)N[C@@H](Cc1ccccc1)C(=O)N[C@@H](CC(=O)O)C(=O)N[C@@H](CC(=O)O)C(=O)N[C@@H](C)C(=O)N[C@@H](CC(=O)O)C(=O)N[C@@H](CO)C(=O)N[C@@H](CO)C(=O)N[C@@H](CC(=O)O)C(N)=O)C(C)C [compound 11] ({FITC-AEEA}-SRVVPGQFDDADSSD-NH2) |  | Kd [2, 5]: 295 ± 11 nM
11 | CC(=O)N[C@H](C(=O)N1CCC[C@H]1C(=O)NCC(=O)N[C@@H](CCC(N)=O)C(=O)N[C@@H](Cc1ccccc1)C(=O)N[C@@H](CC(=O)O)C(=O)N[C@@H](CC(=O)O)C(=O)N[C@@H](C)C(=O)N[C@@H](CC(=O)O)C(=O)N[C@@H](CCCCNC(=O)COCCOCCNC(=S)Nc1ccc2c(c1)C(=O)OC21c2ccc(O)cc2Oc2cc(O)ccc21)C(N)=O)C(C)C [compound 8] (Ac-VPGQFDDADK([AEEA-FITC])-NH2) |  | Kd [2, 5]: 208 ± 74 nM
12 | Ac-TPTVAGQFEDAD-NH2 [compound 24] | 14600 ± 900 | 
13 | Ac-SRVVPGQFDAAD-NH2 [compound 28] | 97000 ± 17000 | 
14 | Ac-SRVVPGQADDAD-NH2 [compound 30] | > 300000 | 
15 | CC(C)[C@H](NC(=O)COCCOCCNC(=S)Nc1ccc2c(c1)C(=O)OC21c2ccc(O)cc2Oc2cc(O)ccc21)C(=O)N[C@@H](CC(=O)O)C(=O)N[C@H](C(=O)N[C@H](C(=O)N1CCC[C@H]1C(=O)N[C@H](C(=O)N[C@H](C(=O)N[C@@H](C)C(=O)NCC(=O)N[C@@H](CCC(N)=O)C(=O)N[C@@H](Cc1ccccc1)C(=O)N[C@@H](CCC(=O)O)C(=O)N[C@@H](CC(=O)O)C(=O)N[C@@H](C)C(=O)N[C@@H](CC(=O)O)C(N)=O)C(C)C)[C@@H](C)O)[C@@H](C)O)[C@@H](C)O [compound 16] ({FITC-AEEA}-VDTTPTVAGQFEDAD-NH2) |  | Kd [2, 5]: 2380 ± 817 nM
16 | CSCC[C@H](NC(=O)COCCOCCNC(=S)Nc1ccc2c(c1)C(=O)OC21c2ccc(O)cc2Oc2cc(O)ccc21)C(=O)N[C@H](C(=O)N[C@@H](Cc1ccccc1)C(=O)N[C@@H](CCC(=O)O)C(=O)N[C@H](C(=O)NCC(=O)N[C@@H](CCC(N)=O)C(=O)N[C@@H](Cc1ccccc1)C(=O)N[C@@H](CC(=O)O)C(=O)N[C@@H](CC(=O)O)C(=O)N[C@@H](C)C(=O)N[C@@H](CCC(=O)O)C(=O)N[C@@H](CC(=O)O)C(N)=O)[C@@H](C)O)C(C)C [compound 3] ({FITC-AEEA}-MVFETGQFDDAED-NH2) |  | Kd [2, 5]: 549 ± 119 nM; Kd [3]: 460 nM; Kd [4]: 2400 ± 320 nM
17 | Ac-MVFETGQFDDAED-NH2 [compound 25] | 3400 ± 200 | 
18 | Ac-SRVAPGQFDDAD-NH2 [compound 34] | 14000 ± 3400 | 
19 | CC(C)[C@H](NC(=O)[C@H](CCCNC(=N)N)NC(=O)[C@H](CO)NC(=O)COCCOCCNC(=S)Nc1ccc2c(c1)C(=O)OC21c2ccc(O)cc2Oc2cc(O)ccc21)C(=O)N[C@H](C(=O)N1CCC[C@H]1C(=O)NCC(=O)N[C@@H](CCC(N)=O)C(=O)N[C@@H](Cc1ccccc1)C(=O)N[C@@H](CC(=O)O)C(=O)N[C@@H](CC(=O)O)C(=O)N[C@@H](C)C(=O)N[C@@H](CC(=O)O)C(N)=O)C(C)C [compound 1] ({FITC-AEEA}-SRVVPGQFDDAD-NH2) |  | Kd [2, 5]: 522 ± 45 nM; Kd [3]: 840 ± 150 nM; Kd [4]: 2800 ± 70 nM
20 | Ac-SRVVPAQFDDAD-NH2 [compound 32] | 39000 ± 8500 | 
21 | Ac-SRAVPGQFDDAD-NH2 [compound 35] | 4800 ± 700 | 
22 | Ac-SRVVPGQFDDAD-NH2 [compound 26] | 6000 ± 700 | 
